According to patent US20250387409A1, “3-BETA-HYDROXY-3-ALPHA-ETHYL STEROIDS FOR MODULATION OF THE ALPHA-3 SUBTYPE OF THE GABAA RECEPTOR” (priority 2021, published 2025):

Tests used:
[1] = biological target: T1, human α4-β3-δ GABAA-receptor subtype (Homo sapiens, UniProt P28472+P48169); assay: Patch clamp (Dynaflow) GABA-mediated current response, HEK-293 cells, α4β3δ; type: cell-based; settings: 1 μM steroid
T1 construct: expressed in transfected cells
Text: (§1) In these tests the protocol was optimized to be like the physiological conditions in the synaptic cleft.
(§2) Preparation of cell lines: HEK-293 cells permanently transfected with the human α1-β2-γ2L, α2-β3-γ2S, α3-ββ3-γ2L, α4-β3-δ or α5-β3-γ2L GABAA-receptor subtypes were used. The cell lines permanently expressing a functional human GABAA-receptor was made in following steps. The human GABAA-receptor subunits e.g. α1 (308-1727 NM_000806), β2 (214-1679 NM_000813), γ2L (290-1785 NM_198904), α2, β3, γ2S, α3, α4, δ and α5 including introduced Kozac sequences just before the start codons were subcloned into mammalian expression vectors containing Geneticin, Hygromycin B, and Zeocin resistance, respectively. A HEK-293 cell line stably expressing the three GABAA-receptor subunits was produced by transfection of the subunits, one at a time. The transfection was followed by selection with the appropriate antibiotics, cell separation with the use of subunit specific antibodies and production of single cell colonies. Produced cell lines were analysed with immunocytochemistry for the three GABAA-receptor subunits, followed by selection of a suitable cell line showing, for the GABAA-receptor normal and good reactivity in a patch-clamp analysis (see below) towards GABA and the GAMS THDOC.
(§3) Cell culture: HEK-293 cells, permanently transfected with human α1-β2-γ2L, α2-β3-γ2S, α3-β3-γ2L, α4-β3-δ and α5-β3-γ2L GABAA-receptor subtypes, were seeded at a density of 3×10^4/25 cm^2 in cell binding culture flask. The transfected cells were used for patch-clamp experiments 3 days after seeding. When using the cells for patch-clamp experiments the cells were washed twice with oxygen-bubbled EC-solution (see below). About 5 mL EC was then added and the cells were kept in the incubator for about 15 minutes. After 15 minutes the cells came loose from the bottom of the flask and were separated by carefully sucking couple of times with a Pasteur pipette.
(§4) Dynaflow™ system: Dynaflow™ system with resolve chips was used for all patch-clamp experiments. The resolve chips is made of non-sticky materials. The channel width is 150 μm and the height 50 μm. The well volume is 280 μL. Run time at the flow rate of 26 μL/min is […]. The pump settings were as follow: Omnifix 2 ml syringe with inner diameter of 9.65 mm was used. The syringe pump flow rate of chip was 26 μL/min.
(§5) Steroids and GABA: GABA was dissolved in EC-solution by ultrasound for about 40 minutes to the concentration of 10 mM in room temperature. All steroids were dissolved to the concentration of 6 mM in dimethyl sulfoxide (DMSO). The DMSO concentration was 0.1% in all end-solutions, including the wash solution (EC) and the solution with GABA alone. End-solutions are the solutions added into the wells of the chip. […]

[2] = biological target: T2, human α3-β3-γ2L GABAA-receptor subtype (Homo sapiens, UniProt P28472+P34903); assay: Patch clamp (Dynaflow) GABA-mediated current response, HEK-293 cells, α3β3γ2L; type: cell-based; settings: for effect on GABA (in words) / effect on GABA response: 1 μM steroid; for activation of the receptor in the absence of GABA / Imax on 100 μM GABA mediated current response: 0.01-10 μM steroid; for activation of the receptor in the absence of GABA: no GABA, data not shown; for Imax on 100 μM GABA mediated current response: from best fit curve
T2 construct: expressed in transfected cells
Text: as §1, §2, §3, §4
(§6) Steroids and GABA: GABA was dissolved in EC-solution by ultrasound for about 40 minutes to the concentration of 10 mM in room temperature. All steroids were dissolved to the concentration of 6 mM in dimethyl sulfoxide (DMSO). The DMSO concentration was 0.1% in all end-solutions, including the wash solution (EC) and the solution with GABA alone. End-solutions are the solutions added into the wells of the chip.
(§7) Electrophysiology: Patch electrodes were pulled from 1.5 mm O.D., 0.86 mm I.D. borosilicate capillary glass without filament. […] The intracellular solution (IC) comprised of (in mM): 140 Cs-gluconate, 3.0 NaCl, 1.2 MgCl2, 1.0 EGTA, 10 HEPES. pH was adjusted to 7.2 with CsOH. The extracellular (EC) solution used during recordings contained (in mM): 137 NaCl, 5.0 KCl, 1.0 CaCl2), 1.2 MgCl2, 10 HEPES, 10 glucose. pH was adjusted with NaOH to 7.4. After compensating for the liquid junction potential, a steady holding potential of −17 mV was used in all experiments. In physiological conditions the HEK-293 has a resting potential at −40 mV and a low concentration of chloride ions inside the cell. By using the holding potential of-17 mV and the intracellular solution with low chloride ion concentration the chloride ions flux into the cell when the receptors are activated. All experiments were performed at room temperature (21 to 23° C.). The following standard protocol was used for all experiments.
(§8) GABA applications: By using the Dynaflow equipment it is possible to study transfected HEK-293 during almost physiological conditions.

[3] = biological target: T3, human α2-β3-γ2S GABAA-receptor subtype (Homo sapiens, UniProt P28472+P47869); assay: Patch clamp (Dynaflow) GABA-mediated current response, HEK-293 cells, α2β3γ2S; type: cell-based; settings: 1 μM steroid
T3 construct: expressed in transfected cells
Text: as §1, §2, §3, §4, §5

GABAA-receptors = assay: Patch clamp, steroid alone without GABA present; type: cell-based, human
Text: as §1
as §2, with “THDOC. […]” for “THDOC.”

[4] = biological target: T4, human α1-β2-γ2L GABAA-receptor subtype (Homo sapiens, UniProt P14867+P47870); assay: Patch clamp (Dynaflow) GABA-mediated current response, HEK-293 cells, α1β2γ2L; type: cell-based; settings: 1 μM steroid, α1β2γ2L; for effect on GABA response: mean ± SEM, + enhancement, − reduction
T4 construct: expressed in transfected cells
Text: as §1, §2, §3, §4, §6
as §7, with “By using the holding potential of-17 mV and the intracellular solution with low chloride ion concentration the chloride ions flux into the cell when the receptors are activated. All experiments were performed at room temperature (21 to 23° C.). The following standard protocol was used for all experiments.” left out

[5] = biological target: T5, human α5-β3-γ2L GABAA-receptor subtype (Homo sapiens, UniProt P28472+P31644); assay: Patch clamp (Dynaflow) GABA-mediated current response, HEK-293 cells, α5β3γ2L; type: cell-based; settings: 1 μM steroid
T5 construct: expressed in transfected cells
Text: as §1, §2, §3, §4, §5

[6] = biological target: T6, human GABAA-receptor subtype α3β3γ2L (Homo sapiens, UniProt P28472+P34903); assay: Patch clamp (Dynaflow) THDOC enhancement of GABA response, HEK-293 cells, α3β3γ2L; type: cell-based; settings: for reduction of THDOC-enhanced GABA effect, Mean ± SEM %: 100 nM THDOC, 100 μM GABA, GABA response subtracted
T6 construct: expressed in transfected cells
Text: as §1, §2, §3, §4, §6, §7, §8

T6 sequence (P34903 29-492): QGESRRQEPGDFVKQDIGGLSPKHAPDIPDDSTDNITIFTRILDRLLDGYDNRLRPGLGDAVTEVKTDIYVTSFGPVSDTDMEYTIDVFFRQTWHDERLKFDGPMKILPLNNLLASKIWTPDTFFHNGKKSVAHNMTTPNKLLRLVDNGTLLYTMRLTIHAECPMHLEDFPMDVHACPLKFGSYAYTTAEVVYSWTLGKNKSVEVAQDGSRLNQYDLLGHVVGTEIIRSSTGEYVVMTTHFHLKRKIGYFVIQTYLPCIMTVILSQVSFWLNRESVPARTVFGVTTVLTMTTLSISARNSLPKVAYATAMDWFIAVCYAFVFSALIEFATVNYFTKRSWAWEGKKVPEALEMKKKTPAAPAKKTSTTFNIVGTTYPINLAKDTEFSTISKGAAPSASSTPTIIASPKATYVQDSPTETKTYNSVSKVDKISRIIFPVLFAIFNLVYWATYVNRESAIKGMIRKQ
T6 sequence (P28472 26-473): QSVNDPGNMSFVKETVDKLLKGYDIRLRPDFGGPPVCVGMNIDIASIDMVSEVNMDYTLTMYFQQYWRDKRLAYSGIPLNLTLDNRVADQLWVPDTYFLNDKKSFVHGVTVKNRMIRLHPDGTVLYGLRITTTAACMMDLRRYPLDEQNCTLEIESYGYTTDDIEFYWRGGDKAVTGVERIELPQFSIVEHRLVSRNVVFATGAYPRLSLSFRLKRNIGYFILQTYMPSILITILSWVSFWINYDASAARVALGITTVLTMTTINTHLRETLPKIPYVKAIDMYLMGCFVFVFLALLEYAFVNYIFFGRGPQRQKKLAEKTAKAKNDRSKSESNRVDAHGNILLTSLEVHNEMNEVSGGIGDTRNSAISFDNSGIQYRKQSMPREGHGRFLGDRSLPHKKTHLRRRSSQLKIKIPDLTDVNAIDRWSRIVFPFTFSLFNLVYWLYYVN
T6 sequence (P18507 40-475 partner): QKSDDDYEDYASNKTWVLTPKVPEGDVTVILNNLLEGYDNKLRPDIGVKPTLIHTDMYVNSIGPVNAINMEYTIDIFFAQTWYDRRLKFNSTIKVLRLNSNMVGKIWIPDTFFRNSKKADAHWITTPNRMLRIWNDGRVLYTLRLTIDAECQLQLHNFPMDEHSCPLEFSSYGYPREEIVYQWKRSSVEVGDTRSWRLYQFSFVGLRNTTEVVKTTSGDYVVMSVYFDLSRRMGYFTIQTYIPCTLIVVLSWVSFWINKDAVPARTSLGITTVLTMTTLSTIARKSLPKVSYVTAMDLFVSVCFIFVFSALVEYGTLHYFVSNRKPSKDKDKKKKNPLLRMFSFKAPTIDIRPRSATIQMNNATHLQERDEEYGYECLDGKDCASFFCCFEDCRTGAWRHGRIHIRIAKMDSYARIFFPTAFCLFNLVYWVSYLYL
T2 sequence (P34903 29-492): as the sequence (P34903 29-492) above
T2 sequence (P28472 26-473): as the sequence (P28472 26-473) above
T2 sequence (P18507 40-475 partner): as the sequence (P18507 40-475 partner) above
T4 sequence (P14867 28-456): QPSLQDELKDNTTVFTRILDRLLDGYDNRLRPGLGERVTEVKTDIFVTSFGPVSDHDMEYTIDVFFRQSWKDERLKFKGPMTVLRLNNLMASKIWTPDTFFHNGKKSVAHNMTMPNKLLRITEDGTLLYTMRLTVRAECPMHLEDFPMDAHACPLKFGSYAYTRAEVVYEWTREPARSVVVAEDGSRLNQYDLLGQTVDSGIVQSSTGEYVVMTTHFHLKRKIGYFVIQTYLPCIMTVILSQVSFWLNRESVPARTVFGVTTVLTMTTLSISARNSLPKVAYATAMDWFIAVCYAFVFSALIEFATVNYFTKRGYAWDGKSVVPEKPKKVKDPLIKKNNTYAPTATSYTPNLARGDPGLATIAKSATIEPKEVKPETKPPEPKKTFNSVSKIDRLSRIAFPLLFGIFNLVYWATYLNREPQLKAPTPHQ
T4 sequence (P47870 26-474 isoform P47870-1 limits assumed): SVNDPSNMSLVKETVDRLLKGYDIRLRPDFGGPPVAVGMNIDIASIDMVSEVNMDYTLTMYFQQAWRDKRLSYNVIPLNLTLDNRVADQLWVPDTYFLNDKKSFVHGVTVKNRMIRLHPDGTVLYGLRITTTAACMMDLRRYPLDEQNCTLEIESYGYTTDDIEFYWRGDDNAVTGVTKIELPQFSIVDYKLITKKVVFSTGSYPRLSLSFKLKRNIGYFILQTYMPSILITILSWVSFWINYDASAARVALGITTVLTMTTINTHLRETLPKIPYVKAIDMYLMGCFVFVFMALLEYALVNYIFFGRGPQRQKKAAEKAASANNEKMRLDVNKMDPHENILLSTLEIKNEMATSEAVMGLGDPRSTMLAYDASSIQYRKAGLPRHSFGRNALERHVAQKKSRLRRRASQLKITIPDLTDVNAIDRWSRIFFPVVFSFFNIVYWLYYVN
T4 sequence (P18507 40-475 partner): as the sequence (P18507 40-475 partner) above
T5 sequence (P31644 32-462): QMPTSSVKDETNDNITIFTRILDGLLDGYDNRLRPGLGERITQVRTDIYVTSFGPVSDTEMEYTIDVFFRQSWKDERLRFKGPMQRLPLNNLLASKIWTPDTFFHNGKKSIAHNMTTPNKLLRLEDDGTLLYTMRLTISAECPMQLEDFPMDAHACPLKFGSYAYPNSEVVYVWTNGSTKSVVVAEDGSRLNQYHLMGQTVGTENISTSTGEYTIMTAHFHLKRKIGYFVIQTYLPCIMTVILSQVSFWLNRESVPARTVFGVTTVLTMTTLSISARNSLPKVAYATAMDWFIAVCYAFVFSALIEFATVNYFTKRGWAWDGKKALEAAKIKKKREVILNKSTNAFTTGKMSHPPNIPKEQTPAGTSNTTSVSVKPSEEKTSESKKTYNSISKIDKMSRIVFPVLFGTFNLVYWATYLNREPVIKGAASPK
T5 sequence (P28472 26-473): as the sequence (P28472 26-473) above
T5 sequence (P18507 40-475 partner): as the sequence (P18507 40-475 partner) above
T1 sequence (P48169 36-554): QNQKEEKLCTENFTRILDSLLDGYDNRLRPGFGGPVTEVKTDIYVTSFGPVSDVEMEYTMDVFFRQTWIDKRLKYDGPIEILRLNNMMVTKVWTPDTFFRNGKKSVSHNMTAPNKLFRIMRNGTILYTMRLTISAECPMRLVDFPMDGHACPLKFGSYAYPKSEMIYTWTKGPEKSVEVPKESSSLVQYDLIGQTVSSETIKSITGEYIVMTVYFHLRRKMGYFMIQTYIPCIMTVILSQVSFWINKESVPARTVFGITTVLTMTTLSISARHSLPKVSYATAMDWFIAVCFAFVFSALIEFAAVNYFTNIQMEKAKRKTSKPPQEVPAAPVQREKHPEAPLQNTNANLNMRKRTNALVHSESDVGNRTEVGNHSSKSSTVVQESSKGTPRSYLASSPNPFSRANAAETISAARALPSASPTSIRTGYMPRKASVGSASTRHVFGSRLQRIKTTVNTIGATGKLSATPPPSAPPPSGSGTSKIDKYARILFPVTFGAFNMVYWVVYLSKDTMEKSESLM
T1 sequence (P28472 26-473): as the sequence (P28472 26-473) above
T1 sequence (O14764 25-452 partner): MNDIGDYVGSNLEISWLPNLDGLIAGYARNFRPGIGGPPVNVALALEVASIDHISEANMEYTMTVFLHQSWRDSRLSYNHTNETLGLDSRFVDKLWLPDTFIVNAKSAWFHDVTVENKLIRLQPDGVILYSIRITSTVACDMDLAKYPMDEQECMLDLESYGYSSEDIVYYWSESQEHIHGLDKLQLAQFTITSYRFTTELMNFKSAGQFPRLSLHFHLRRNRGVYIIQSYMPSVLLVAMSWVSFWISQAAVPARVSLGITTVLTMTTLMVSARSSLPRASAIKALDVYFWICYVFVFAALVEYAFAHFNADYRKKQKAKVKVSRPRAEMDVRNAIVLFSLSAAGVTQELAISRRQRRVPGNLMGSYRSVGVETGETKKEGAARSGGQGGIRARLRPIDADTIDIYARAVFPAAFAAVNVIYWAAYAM
T3 sequence (P47869 29-451): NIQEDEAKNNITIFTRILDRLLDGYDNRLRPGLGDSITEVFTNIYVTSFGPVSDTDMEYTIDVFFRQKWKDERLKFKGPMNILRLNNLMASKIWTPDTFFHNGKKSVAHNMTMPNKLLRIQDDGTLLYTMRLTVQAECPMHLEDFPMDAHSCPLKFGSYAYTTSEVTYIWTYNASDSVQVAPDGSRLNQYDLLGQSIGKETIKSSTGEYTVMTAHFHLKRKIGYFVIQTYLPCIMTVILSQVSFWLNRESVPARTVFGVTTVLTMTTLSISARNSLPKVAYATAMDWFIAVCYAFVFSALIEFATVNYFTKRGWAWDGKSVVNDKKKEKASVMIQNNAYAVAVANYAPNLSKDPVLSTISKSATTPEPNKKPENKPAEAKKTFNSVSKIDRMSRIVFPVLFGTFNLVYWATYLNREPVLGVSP
T3 sequence (P28472 26-473): as the sequence (P28472 26-473) above
T3 sequence (P18507 40-467 isoform P18507-1 partner limits assumed): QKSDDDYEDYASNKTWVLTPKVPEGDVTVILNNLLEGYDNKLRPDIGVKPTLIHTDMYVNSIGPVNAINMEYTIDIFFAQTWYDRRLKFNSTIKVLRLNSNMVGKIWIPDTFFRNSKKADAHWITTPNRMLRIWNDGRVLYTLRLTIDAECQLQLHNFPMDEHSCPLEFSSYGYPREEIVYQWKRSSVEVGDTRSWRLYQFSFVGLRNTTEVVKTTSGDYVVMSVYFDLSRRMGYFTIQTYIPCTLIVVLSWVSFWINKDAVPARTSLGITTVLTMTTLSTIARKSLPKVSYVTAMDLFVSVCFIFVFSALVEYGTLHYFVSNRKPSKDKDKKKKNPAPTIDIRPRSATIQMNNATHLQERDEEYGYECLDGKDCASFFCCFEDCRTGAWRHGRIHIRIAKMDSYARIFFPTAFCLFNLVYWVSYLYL

Row | Structure (SMILES) | effect on GABA (in words) [1] | effect on GABA response [1] | IC50 [2] [nM] | effect on GABA (in words) ([2]; α3β3γ2L) | effect on GABA response ([2]; α3β3γ2L) [%] | activation of the receptor in the absence of GABA [2] | Imax on 100 μM GABA mediated current response ([2]; α3β3γ2L) [%] | effect on 100 μM GABA response, Mean ± SEM % ([2]; steroid conc. 0.01 μM, α3β3γ2L) | effect on 100 μM GABA response, Mean ± SEM % ([2]; steroid conc. 0.03 μM, α3β3γ2L) | effect on 100 μM GABA response, Mean ± SEM % ([2]; steroid conc. 0.1 μM, α3β3γ2L) | effect on 100 μM GABA response, Mean ± SEM % ([2]; steroid conc. 0.3 μM, α3β3γ2L) | effect on 100 μM GABA response, Mean ± SEM % ([2]; steroid conc. 1 μM, α3β3γ2L) [%] | effect on 100 μM GABA response, Mean ± SEM % ([2]; steroid conc. 3 μM, α3β3γ2L) [%] | effect on 100 μM GABA response, Mean ± SEM % ([2]; steroid conc. 10 μM, α3β3γ2L) [%] | effect on GABA (in words) [3] | effect on GABA response [3] | effect on the GABAA-receptors alone without GABA present (GABAA-receptors) | effect on GABA (in words) [4] | effect on GABA response [4] | effect on GABA (in words) [5] | other results
1 | CC[C@]1(O)CC[C@@]2(C)[C@@H](CC[C@@H]3[C@@H]2CC[C@]2(C)C(=O)CC[C@@H]32)C1 [3α-ethyl-3β-hydroxy-5α-androstan-17-one] | significant antagonistic effect | −12 ± 2.3% | 900 | significant antagonistic effect | −38 ± 2.4 | did activate the receptor in the absence of GABA | −77 | +6.6 ± 2.2% | −1.6 ± 0.7% | +4.4 ± 3.0% | −11 ± 0.7% | −39 ± 3.1 | −67 ± 3.0 | −75 ± 3.0 | significant antagonistic effect | −29 ± 1.3% | no effect | significant antagonistic effect | −9.3 ± 1.3% | significant antagonistic effect | significant reducing effect on 100 μM GABA response ([2]; at 0.3 μM, α3β3γ2L): more than 10%; concentration at which antagonistic effect against GABAs effect is seen ([2]; α3β3γ2L): ≥ 0.3 µM; effect on GABA response [5]: −38 ± 2.0%; reduction of THDOC-enhanced GABA effect, Mean ± SEM % ([6]; steroid conc. 0.03 μM): −4.4 ± 8.5%; reduction of THDOC-enhanced GABA effect, Mean ± SEM % ([6]; steroid conc. 0.1 μM): −35 ± 8.8%; reduction of THDOC-enhanced GABA effect, Mean ± SEM % ([6]; steroid conc. 0.3 μM): −72 ± 8.3%; reduction of THDOC-enhanced GABA effect, Mean ± SEM % ([6]; steroid conc. 1 μM): −120 ± 5.6%; reduction of THDOC-enhanced GABA effect, Mean ± SEM % ([6]; steroid conc. 3 μM): −202 ± 13%; concentration at which antagonistic effect on THDOC enhancement of GABA is seen ([6]; α3β3γ2L): ≥ 0.1 µM
2 | CC[C@]1(O)CC[C@@]2(C)[C@@H](CC[C@@H]3[C@@H]2CC[C@]2(C)[C@@H](C(C)=O)CC[C@@H]32)C1 [3α-ethyl-3β-hydroxy-5α-pregnan-20-one] | no significant antagonistic or agonistic effect | +6.5 ± 2.5% | 1700 | antagonizing effect | −8.5 ± 1.9 | did activate the receptor in the absence of GABA | −47 | +3.7 ± 2.4% | +9.1 ± 4.4% | +1.2 ± 4.2% | +15 ± 4.7% | −8.1 ± 2.7 | −32 ± 4.0 | −46 ± 6.8 | no significant antagonistic or agonistic effect | +0.6 ± 2.3% | no effect | agonistic enhancing effect | +6.0 ± 2.0% | no significant antagonistic or agonistic effect | significant reducing effect on 100 μM GABA response ([2]; at 3 μM, α3β3γ2L): more than 30%; effect on GABA response [5]: +3.2 ± 2.6%; IC50 [6]: 400 nM; block of the THDOC enhancement ([6]; 3 μM steroid): completely block the THDOC enhancement; effect on THDOC's autonomic opening of the α3β3γ2L GABAA-receptor ([6]; in the range of the vehicle): slight agonistic effect; reduction of THDOC-enhanced GABA effect, Mean ± SEM % ([6]; steroid conc. 0.03 μM): +19 ± 7.4%; reduction of THDOC-enhanced GABA effect, Mean ± SEM % ([6]; steroid conc. 0.1 μM): −7.7 ± 12%; reduction of THDOC-enhanced GABA effect, Mean ± SEM % ([6]; steroid conc. 0.3 μM): −34 ± 6.7%; reduction of THDOC-enhanced GABA effect, Mean ± SEM % ([6]; steroid conc. 1 μM): −78 ± 8.8%; reduction of THDOC-enhanced GABA effect, Mean ± SEM % ([6]; steroid conc. 3 μM): −141 ± 15%; concentrations at which antagonist against THDOC enhancement of GABA ([6]; α3β3γ2L): above 300 nM
